Test results: patent US20060183144A1, “Methods and compositions for assessing nucleic acids” (Medical College of Ohio, priority 2005, published 2006)

What was measured:
[1] = test system: cytochrome p450 (CYP) IAI gene; assay: MC RT-PCR with Celi competitive templates, induction of CYPIAI gene expression; format: cell-based, human; settings: BEP2D cells incubated with β-napthoflavone (10 μM); control 0.1% DMSO; about the same cDNA loading by GAPDH reference gene
Procedure: In a second set of experiments, multiplex competitive reverse transcriptase polymerase chain reaction (MC RT-PCR) with competitive templates were prepared by the Celi method to evaluate the cytochrome p450 (CYP) IAI gene in β-napthoflavone-exposed BEP2D cells. The induction of CYPIAI gene expression was evaluated using both MC RT-PCR with Celi competitive templates, and Northern analysis. Competitive templates were prepared for both the CYPIAI and GAPDH genes. The primers used to prepare the competitive template for GAPDH were: […]
The PCR amplification conditions were the same as described for experiments using the competitive templates prepared for GAPDH and GSHPx by the Higuchi method except the annealing temperature was 55 degrees centigrade and the amplification was carried out for 38 cycles.
Because the native and competitive templates separate without prior restriction endonuclease digestion, samples were taken directly from the PCR reaction tube and applied to ethidium bromide stained 3% Nusieve, 1% LE agarose gels. It was then possible to quantify the products by taking a negative photograph of the gel using Polaroid 665 positive/negative instant film, subjecting the negative photograph to densitometry. […]

[2] = test system: cytochrome p450 IA1 (CYPIAI); assay: Northern analysis of CYPIAI gene expression; format: cell-based, human; settings: BEP2D cells incubated with β-napthoflavone (10 μM); control 0.1% DMSO; 32P-labeled CYPIAI cDNA probe
Procedure: RNA from BEP2D cells incubated for varying times with β-napthoflavone (10 μM) was either electrophoresed on a 1% LE formaldehyde denaturing gel for Northern analysis or MC RT-PCR amplified, as described above. For Northern analysis, following transfer of the RNA to GeneScreen, the filters were hybridized with ^32P-labeled CYPLAI cDNA.

O=c1cc(-c2ccccc2)oc2ccc3ccccc3c12 [β-napthoflavone]
band representing the native CYPIAI gene, exposed cells compared to control cells [1]: much more strongly represented
gene expression of the CYPIAI gene [2]: increase
